The term IC50 denotes the point on the concentration scale where inhibition reaches its midpoint.

Type in all cases: cell-based
The test system of experiment [1] is C1 cells. Nature of the experiment: Killing of Philadelphia negative C1 acute lymphoblastic leukemia cells in culture (colony assay). The conditions noted are these: C1 Philadelphia negative ALL cells, methylcellulose colony count in 5-7 days. How it is done:
C1 (at 2×10^4 cells/ml) were plated in 1 ml volumes, in the absence of exogenous growth factors, into 35 mm Petri dishes (Nunc, Gibco) containing alpha MEM (Gibco) plus 10% FCS (Cansera Rexdale, Ont.) in 0.9% (vol/vol) methylcellulose (Fluka, Switzerland). Cultures were set up at 37° C. with 5% CO2 in a humidified atmosphere. Colonies consisting of more than 20 cells were counted in 5-7 days using an inverted microscope. For further information, see Leukemia, Vol. 6, No. 1, 1992, pg. 8-17 and Nature, Vol. 379, 15 Feb. 1996.

For experiment [2], the system named is normal bone marrow cells (BFU-E). The experiment can be described thus: Effect upon normal bone marrow differentiation in culture (CFU-GEMM assay, BFU-E colonies). The conditions noted are these: Bone marrow cell, 336 h, BFU-E colonies evaluated at 14 days, read-out: NBM (BFU-E) IC50. The protocol: The CFU-GEMM assay was performed according to Fauser and Messner (1978, Blood, 52(6) 143-8) and Messner and Fausser (1980, Blut, 41(5) 327-33) with some variations. In brief, heparinized bone marrow cells were layered over Percoll (1.077 gm/ml) (Pharmacia Fine Chemical, Piscataway N.J.) and centrifuged at 400 g at 4° C. for 10 minutes to remove neutrophils and RBCs. The fractionated BM cells at 2×10^5 cells/ml were cultured in IMDM (OCI, Toronto) containing 0.9% (vol/vol) methylcellulose supplemented with 30% FCS (Cansera Rexdale, ON.) or normal human plasma, a cocktail of cytokines containing G-CSF (10 ng/ml, Amgen), IL-3 (40 U/ml, Immunex), MGF (50 ng/ml, Immunex), Erythropoietin (2 u/ml, Epprex) or TPO (10 ng/ml, Amgen), 5×10^−5 M β-2-mercaptoethanol and the specified concentration of CR4. The culture mixture was plated in 1 ml volumes into 35 mm petri dishes and incubated at 37° C., 5% CO2 in a humidified atmosphere. All cultures were evaluated at 14 days for the number of BFU-E colonies (defined as aggregates of more than 500 hemoglobinized cells or, 3 or more erythroid subcolonies), OFU-GM colonies (defined as granulocyte or monocyte-macrophage cells or both), CFU-Meg colonies (comprising 4 or more megakaryocytes) and CFU-GEMM colonies (a mixed population comprising of all elements).

The test system of experiment [3] is Z119 cells. The experiment can be described thus: Killing of Philadelphia positive Z119 acute lymphoblastic leukemia cells in culture (colony assay). The conditions noted are these: Z119 Philadelphia positive ALL cells, methylcellulose colony count at 7-9 days; read-out: ALL (Z 119) IC50. The protocol: Z119 cells were plated in 1 ml volumes at a density of 5×10^4 cells/ml, in the absence of exogenous growth factors, into 35 mm petri dishes (Nunc, Gibco) containing IMDM (OCI, Toronto) plus 20% FCS (Cansera Rexdale, ON.) in 0.9% (vol/vol) methylcellulose (Fluka, Switzerland) with the indicated concentration of for various test compounds described above. Cultures were set at 37° C., 5% CO2 in a humidified atmosphere. Colonies consisting of more than 20 cells were counted at 7-9 days using an inverted microscope.

For experiment [4], the system named is OCI-AML-3 cells. The experiment can be described thus: Killing of AML-3 acute myeloid leukemia cells in culture (colony assay). The conditions noted are these: Homo sapiens, methylcellulose colony count at 5-6 days. The protocol:
OCI-AML-3 cells were plated in 35 mm petri dishes (Nunc, Gibco) in 1 ml volumes at a density of 3.3×10^3 cells/ml, in the absence of exogenous growth factors, containing alpha MEM plus 30% FCS (Cansera, Rexdale Ont.), and 0.9% (vol/vol) methylcellulose (Fluka, Switzerland) and the indicated concentrations of for various test compounds described above. Cell cultures were incubated in a humidified atmosphere at 37° C. with 5% CO2. Colonies containing more than 20 cells were scored, using an inverted microscope, at 5-6 days.

As for `N#C/C(=C\C=C\c1cccnc1)C(=O)NCc1ccc(O)c(O)c1` [CRH-58, 2-cyano-5-pyridin-3-yl-penta-2E,4E-dienoic acid 3,4-dihydroxybenzylamide], the IC50 in experiment [1] is > 500 nM; in experiment [2], 7.5 to 9.8 µM; in experiment [3] it was 260 nM; in experiment [4] it was > 500 nM.

Take `N#C/C(=C\c1ccc(/C=C/c2ccccc2)cc1)C(=O)NCc1ccncc1` [CRS-75, 2-cyano-N-pyridin-4-ylmethyl-3-(4-trans-styrylphenyl)-E-acrylamide]: the IC50 in experiment [1] was ≥ 500 nM; in experiment [2], > 10 µM; in experiment [3], > 1000 nM; in experiment [4], ≥ 500 nM.

With `N#C/C(=C\C=C\c1cccs1)C(=O)NCc1ccc(O)c(O)c1` [CRH-60, 2-cyano-5-thiophen-2-yl-penta-2E,4E-dienoic acid 3,4-dihydroxybenzylamide], the concentration for half-maximal inhibition (IC50) is 7.1 µM in experiment [2] and < 500 nM in experiment [3].

As for `N#C/C(=C\c1ccc(/C=C/c2ccncc2)cc1)C(=O)NCc1ccc(O)c(O)c1` [CRS-76, 2-cyano-N-(3,4-dihydroxybenzyl)-3-[4-(2-pyridin-4-yl-trans-vinyl)-phenyl]-E-acrylamide], the half-maximal inhibitory concentration (IC50) in experiment [2] is > 10 µM; in experiment [3], > 1000 nM.

`N#C\C(=C/C=C/C=C/c1ccc(O)c(O)c1)C(=O)NCc1ccccc1` [CRT-88, 2-Cyano-7-(3,4-dihydroxyphenyl)hepta-2E,4E,6E-trienoic acid benzyl-amide]: the concentration for half-maximal inhibition (IC50) in experiment [2] is 3.1 to 5.4 µM; in experiment [3], < 500 nM.

For the molecule `COc1cc(/C=C/C=C/C=C(\C#N)C(=O)NCc2ccc(O)c(O)c2)ccc1O` [CRT-67, 2-cyano-7-(4-hydroxy-3-methoxyphenyl)hepta-2E,4E,6E-trienoic acid 3,4-dihydroxybenzylamide], the IC50 in experiment [1] is > 500 nM; in experiment [2] it was 10.2 µM; in experiment [3] it was ≤ 500 nM; in experiment [4] it was > 500 nM.

With `N#C/C(=C\C=C\c1ccco1)C(=O)NCc1ccc(O)c(O)c1` [CRH-48, 2-cyano-5-furan-2-yl-penta-2E,4E-dienoic acid 3,4-dihydroxybenzylamide], the IC50 in experiment [1] was ≥ 250 nM; in experiment [2], ≤ 10 µM; in experiment [3], 250 to 500 nM; in experiment [4], 230 nM.

For `N#C/C(=C\C=C\c1cccnc1)C(=O)NCc1ccccc1` [CRH-59, 2-cyano-5-pyridin-3-yl-penta-2E,4E-dienoic acid benzylamide], the half-maximal inhibitory concentration (IC50) in experiment [2] is > 10 µM; in experiment [3], > 1000 nM.

As for `N#C/C(=C\c1ccc(/C=C/c2ccncc2)cc1)C(=O)NCc1ccncc1` [CRS-77, 2-cyano-N-pyridin-4-ylmethyl-3-[4-(2-pyridin-4-yl-trans-vinyl)phenyl]-E-acrylamide], the 50% inhibitory concentration (IC50) was > 10 µM in experiment [2] and > 1000 nM in experiment [3].

In the case of `N#C/C(=C\C=C\c1cc(O)ccc1O)C(=O)NCc1ccccc1` [CRO-70, 2-Cyano-5-(2,5-dihydroxyphenyl)penta-2E,4E-dienoic acid benzylamide], the IC50 in experiment [1] is > 500 nM; in experiment [2], 6.9 µM; in experiment [3] it was 260 nM; in experiment [4], > 500 nM.

Consider `N#C/C(=C\C(Cl)=C\c1ccccc1)C(=O)NCc1ccc(O)c(O)c1` [CRC-47, 4-chloro-2-cyano-5-phenyl-penta-2E,4Z-dienoic acid 3,4-dihydroxybenzylamide], for which the concentration for half-maximal inhibition (IC50) in experiment [2] is < 5 µM; in experiment [3], < 125 nM.

The record behind these values is patent publication US7807719B2, “Compounds useful for modulating abnormal cell proliferation” (priority 2004, dated 2010).
